Experimental data from the supplement of paper PMC13380429.
± gives the standard deviation of the averaged measurements.

Legend:
Conditions in all cases: 72 h
HepG2 [1] = test: drug sensitivity score (DSS) for viability; higher = more toxic; extreme values may be limits of the assay
Vero E6 [2] = test: as above
Caco-2 [3] = test: as above
Calu-3 [4] = test: as above
U2OS [5] = test: as above
HepG2 [6] = test: cell viability relative to DMSO; higher = less toxic
Vero E6 [7] = test: as above
Caco-2 [8] = test: as above
Calu-3 [9] = test: as above
U2OS [10] = test: as above
HepG2 [11] = test: relative viability EC50 (midpoint between 100% and the lowest measured viability); higher = less toxic
Vero E6 [12] = test: as above
Caco-2 [13] = test: as above
Calu-3 [14] = test: as above
U2OS [15] = test: as above

Row | SMILES | drug sensitivity score (HepG2 [1]) | drug sensitivity score (Vero E6 [2]) | drug sensitivity score (Caco-2 [3]) | drug sensitivity score (Calu-3 [4]) | drug sensitivity score (U2OS [5]) | cell viability (HepG2 [6]; 1 nM) [%] | cell viability (HepG2 [6]; 10 nM) [%] | cell viability (HepG2 [6]; 100 nM) [%] | cell viability (HepG2 [6]; 1000 nM) [%] | cell viability (HepG2 [6]; 10000 nM) [%] | cell viability (Vero E6 [7]; 1 nM) [%] | cell viability (Vero E6 [7]; 10 nM) [%] | cell viability (Vero E6 [7]; 100 nM) [%] | cell viability (Vero E6 [7]; 1000 nM) [%] | cell viability (Vero E6 [7]; 10000 nM) [%] | cell viability (Caco-2 [8]; 1 nM) [%] | cell viability (Caco-2 [8]; 10 nM) [%] | cell viability (Caco-2 [8]; 100 nM) [%] | cell viability (Caco-2 [8]; 1000 nM) [%] | cell viability (Caco-2 [8]; 10000 nM) [%] | cell viability (Calu-3 [9]; 1 nM) [%] | cell viability (Calu-3 [9]; 10 nM) [%] | cell viability (Calu-3 [9]; 100 nM) [%] | cell viability (Calu-3 [9]; 1000 nM) [%] | cell viability (Calu-3 [9]; 10000 nM) [%] | cell viability (U2OS [10]; 1 nM) [%] | cell viability (U2OS [10]; 10 nM) [%] | cell viability (U2OS [10]; 100 nM) [%] | cell viability (U2OS [10]; 1000 nM) [%] | cell viability (U2OS [10]; 10000 nM) [%] | relative viability EC50 (HepG2 [11]) [µM] | relative viability EC50 (Vero E6 [12]) [µM] | relative viability EC50 (Caco-2 [13]) [µM] | relative viability EC50 (Calu-3 [14]) [µM] | relative viability EC50 (U2OS [15]) [µM]
1 | CC[C@H](C)[C@@H]1NC(=O)[C@H](Cc2ccc(O)cc2)NC(=O)[C@@H](N)CSSC[C@@H](C(=O)N2CCC[C@H]2C(=O)N[C@@H](CC(C)C)C(=O)NCC(N)=O)NC(=O)[C@H](CC(N)=O)NC(=O)[C@H](CCC(N)=O)NC1=O [oxytocin] | 0 | 0 | 0 | 0 | 0 | 114 | 96.1 | 105 | 87.7 | 99.2 | 106 | 112 | 98.7 | 105 | 99.2 | 95.5 | 122 | 82.2 | 100 | 100 | 92 | 93.8 | 98.9 | 103 | 97 | 98.2 | 99 | 98.3 | 98.5 | 95.7 | > 10 | > 10 | > 10 | > 10 | > 10
2 | CC(C)C(=O)SCCCCC[C@H](NC(=O)OC(C)(C)C)C(=O)NC12CC3CC(CC(C3)C1)C2 [TCS-HDAC6-20b] | 0 | 0 | 0 | 0.1 | 0 | 101 | 99.3 | 101 | 96.5 | 105 | 96.5 | 96.2 | 97 | 98.9 | 113 | 97.7 | 96.9 | 95.5 | 102 | 103 | 101 | 93.3 | 95.6 | 108 | 85.3 | 101 | 102 | 106 | 98.4 | 98.4 | > 10 | > 10 | > 10 | > 10 | > 10
3 | COc1ccc(CCNCc2ccc(OCc3ccc(Cl)nc3)c(OC)c2)cc1OC [SBE-13] | 0 | 0 | 0 | 0 | 0 | 107 | 105 | 102 | 96.1 | 94 | 107 | 104 | 101 | 98.5 | 97.3 | 90.3 | 94.3 | 92.1 | 98.2 | 95.3 | 108 | 97.8 | 93.3 | 99.1 | 93.8 | 98 | 103 | 102 | 98.8 | 95.2 | > 10 | > 10 | > 10 | > 10 | > 10
4 | O=C(CCCCC(=O)Nc1c(I)cc(I)c(C(=O)O)c1I)Nc1c(I)cc(I)c(C(=O)O)c1I [iodipamide] | 0 | 0 | 0 | 0 | 0 | 96 | 93.3 | 97.6 | 101 | 103 | 102 | 99.2 | 101 | 98.6 | 103 | 106 | 106 | 97.1 | 95.3 | 102 | 98 | 104 | 93.6 | 101 | 101 | 96.2 | 103 | 97.7 | 95.1 | 97.9 | > 10 | > 10 | > 10 | > 10 | > 10
5 | COc1ccc(CN(C(=O)[C@@H](N)Cc2c(C)cc(C(N)=O)cc2C)[C@@H](C)c2ncc(-c3ccccc3)[nH]2)cc1C(=O)O [eluxadoline] | 0 | 0 | 0 | 0 | 0 | 99.6 | 95.4 | 97.1 | 99.9 | 105 | 104 | 101 | 94.5 | 98.2 | 103 | 94.1 | 98.2 | 97.6 | 98.5 | 113 | 96.6 | 105 | 95.1 | 118 | 101 | 91.5 | 98.3 | 96.1 | 100 | 98 | > 10 | > 10 | > 10 | > 10 | > 10
6 | Cc1ccc2c(c1)C(=O)[C@]1(O)CCN(c3ccccc3)C1=N2 (racemic) [blebbistatin-(+/-)] | 0 | 0.15 ± 0.21 | 0.3 ± 0.42 | 0 | 0.05 ± 0.071 | 98 ± 1.3 | 88.2 ± 0.92 | 98.3 ± 8.3 | 89 ± 9.6 | 96 ± 7 | 98.6 ± 0.99 | 96.6 ± 4.5 | 96.4 ± 4.4 | 95.5 ± 3.9 | 93.4 ± 10 | 100 ± 2.5 | 97.25 ± 0.49 | 97.9 ± 2.1 | 98.5 ± 1.1 | 94.2 ± 16 | 99 ± 11 | 95.9 ± 0.28 | 95.5 ± 10 | 109 ± 3.2 | 136 ± 9.8 | 99.4 ± 1.6 | 101.2 ± 0.78 | 97.8 ± 1.8 | 99.85 ± 0.35 | 95.2 ± 12 | > 10 | > 10 | > 10 | > 10 | > 10
7 | CC(C)Cn1cnc2c1c(=O)n(C)c(=O)n2C [isbufylline] | 0 | 0 | 0 | 0 | 0 | 100 | 99 | 91.7 | 93.7 | 105 | 92.9 | 95.9 | 91.3 | 104 | 106 | 93.7 | 96.8 | 112 | 115 | 112 | 104 | 88.5 | 101 | 102 | 98.4 | 98.1 | 96.5 | 98.1 | 97.3 | 93.3 | > 10 | > 10 | > 10 | > 10 | > 10
8 | Cc1ncc(-c2ccnc(Nc3ccc(S(C)(=O)=O)cc3)n2)n1C(C)C [AZD5438] | 8.7 | 6.2 | 4.4 | 2.9 | 4.8 | 100 | 95 | 106 | 77.3 | 6.7 | 97.6 | 102 | 96.4 | 91.6 | 12.6 | 97.1 | 97.8 | 104 | 96.8 | 27.7 | 98.9 | 97.1 | 104 | 106 | 38.1 | 104 | 105 | 108 | 102 | 10.1 | 1.58 | 2.36 | 2.84 | 3.65 | 3.29
9 | NCC(O)c1ccc(O)cc1 (stereo not given) [octopamine] | 0 | 0 | 0.1 | 0 | 0 | 91.7 | 103 | 95.9 | 97.5 | 117 | 106 | 96.6 | 101 | 85.1 | 100 | 87.1 | 96.9 | 94 | 100 | 86.1 | 108 | 105 | 93 | 108 | 95.6 | 95.1 | 97.3 | 101 | 96.5 | 95.6 | > 10 | > 10 | > 10 | > 10 | > 10
10 | O=c1c(-c2ccc(O)cc2)coc2c([C@@H]3O[C@H](CO)[C@@H](O)[C@H](O)[C@H]3O)c(O)ccc12 [puerarin] | 0 | 0 | 0 | 0 | 0 | 94.4 | 102 | 94.8 | 107 | 98.2 | 99.7 | 99.5 | 99.9 | 107 | 103 | 98.4 | 99.8 | 96 | 98 | 101 | 89.3 | 92.3 | 97.5 | 89.6 | 95.6 | 99.7 | 95.2 | 96 | 94.6 | 100 | > 10 | > 10 | > 10 | > 10 | > 10
11 | CCc1cn([C@H]2C[C@H](O)[C@@H](CO)O2)c(=O)[nH]c1=O [edoxudine] | 0 | 0 | 0 | 0 | 0 | 93.8 | 88.3 | 98.6 | 87.4 | 85.8 | 102 | 101 | 98 | 96 | 92.4 | 89.6 | 93.6 | 99.9 | 88.2 | 99.5 | 102 | 95.6 | 101 | 97 | 99.1 | 102 | 101 | 98.8 | 98.8 | 95.3 | > 10 | > 10 | > 10 | > 10 | > 10
12 | COc1ccc(CCC(=O)Nc2nc3ccc(Cl)cc3s2)cc1OC | 0 | 0 | 0.3 | 0.1 | 0 | 96.5 | 110 | 96.3 | 98.3 | 98.1 | 101 | 96.9 | 97.3 | 101 | 95.2 | 102 | 94 | 95.9 | 92.1 | 85.4 | 102 | 94.9 | 92.7 | 91.7 | 89.3 | 101 | 94.7 | 98.5 | 95.1 | 96.3 | > 10 | > 10 | > 10 | > 10 | > 10
13 | O=C1CCC[C@@H]2[C@H]3CCCN4CCC[C@@H](CN12)[C@@H]34 [matrine] | 0 | 0 | 0 | 0 | 0 | 89.9 | 108 | 85.8 | 111 | 103 | 96.8 | 98.7 | 93.3 | 99.1 | 104 | 97.6 | 94 | 94.9 | 91.4 | 90.4 | 97 | 93.5 | 100 | 98.5 | 100 | 96.1 | 96.4 | 96.4 | 93.7 | 99.1 | > 10 | > 10 | > 10 | > 10 | > 10
14 | N[C@@H](Cn1oc(=O)[nH]c1=O)C(=O)O [L-quisqualic-acid] | 0 | 0 | 0 | 0 | 0 | 89.7 | 99.1 | 91 | 89.8 | 107 | 101 | 100 | 98.7 | 96.8 | 102 | 99.1 | 94 | 91.9 | 97 | 97.5 | 87.9 | 96.2 | 100 | 93.1 | 94.9 | 99.2 | 104 | 101 | 101 | 95.7 | > 10 | > 10 | > 10 | > 10 | > 10
